Test results from ChEMBL document CHEMBL1156593, “Alkamides from the fruits of Piper longum and Piper nigrum displaying potent cell adhesion inhibition” (Bioorg Med Chem Lett, 2008).
Calls of active or inactive are those of the source. The calls are words filed in the database; no cut-off is given here.

Key:
[1] = target: Intercellular adhesion molecule 1 (Homo sapiens) (UniProt P05362); assay: Inhibition of sICAM1/LFA1 interaction-mediated human THP1 cell adhesion at 12.50 ug/mL after 1 hr by ELISA; assay type: cell-based; settings: THP-1
[2] = target: Intercellular adhesion molecule 1 (Homo sapiens) (UniProt P05362); assay: Inhibition of sICAM1/LFA1 interaction-mediated human THP1 cell adhesion at 6.25 ug/mL after 1 hr by ELISA; assay type: cell-based; settings: THP-1
[3] = target: Intercellular adhesion molecule 1 (Homo sapiens) (UniProt P05362); assay: Inhibition of sICAM1/LFA1 interaction-mediated human THP1 cell adhesion at 3.13 ug/mL after 1 hr by ELISA; assay type: cell-based; settings: THP-1
Mus musculus = organism: Mus musculus; assay: Antiinflammatory activity in mouse; assay type: functional, organism-based
[4] = target: Intercellular adhesion molecule 1 (Homo sapiens) (UniProt P05362); assay: Inhibition of sICAM1/LFA1 interaction-mediated human THP1 cell adhesion at 25 ug/mL after 1 hr by ELISA; settings: THP-1
THP-1 = assay: Cytotoxicity against human THP1 cells assessed as cell viability at 3.13 to 25.00 ug/mL by MTT assay; assay type: cell-based

Sequence of Intercellular adhesion molecule 1 (Homo sapiens) (P05362 whole entry): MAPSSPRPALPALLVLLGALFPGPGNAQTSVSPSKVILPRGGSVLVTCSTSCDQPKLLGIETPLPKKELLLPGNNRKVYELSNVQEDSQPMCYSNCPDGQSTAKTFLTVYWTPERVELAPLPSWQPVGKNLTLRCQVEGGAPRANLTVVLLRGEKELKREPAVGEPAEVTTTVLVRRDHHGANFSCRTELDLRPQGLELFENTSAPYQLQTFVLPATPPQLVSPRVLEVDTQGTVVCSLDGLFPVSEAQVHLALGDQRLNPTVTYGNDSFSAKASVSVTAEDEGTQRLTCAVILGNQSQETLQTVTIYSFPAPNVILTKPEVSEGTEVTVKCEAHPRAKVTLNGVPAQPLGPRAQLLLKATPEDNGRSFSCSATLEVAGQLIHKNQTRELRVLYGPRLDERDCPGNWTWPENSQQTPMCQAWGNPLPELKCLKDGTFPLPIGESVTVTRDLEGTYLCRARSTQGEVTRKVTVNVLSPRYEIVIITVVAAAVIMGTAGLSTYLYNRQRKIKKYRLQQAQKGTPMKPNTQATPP

inhibition [1]	inhibition [2]	Activity [3]	inhibition [4]	Activity [4]	inhibition [3]	Compound	Activity (Mus musculus)	Activity (THP-1)
58.4%	13.1%	inactive	92.1%			O=C(/C=C/C=C\CC/C=C/c1ccc2c(c1)OCO2)N1CCCCC1	Active	Non-toxic
61.4%	37.7%	inactive		inactive		CC[C@H](C)C(=O)O[C@H]1C[C@@H](C)C=C2C=C[C@H](C)[C@H](CC[C@@H]3C[C@@H](O)CC(=O)O3)[C@H]21		
57.7%	52.5%		73.4%		30.1%	O=C(/C=C/C=C/CC/C=C/c1ccc2c(c1)OCO2)N1CCCCC1 [DEHYDROPIPERNOLINE]	Active	Non-toxic
46.4%	16.5%		80.6%		11.3%	CCCCC/C=C/C=C/C(=O)NCC(C)C [PELLITORIN]	Active	Non-toxic
26.9%	20.9%		42.6%		15.6%	CC(C)CNC(=O)/C=C/CCCCCC/C=C/c1ccc2c(c1)OCO2 [PIPERCHABAMIDE D]	Active	Non-toxic
70.2%	36.8%		93.8%		12.5%	O=C(/C=C/CCCC/C=C/c1ccc2c(c1)OCO2)N1CCCCC1 [PIPERNONALINE]	Active	Non-toxic
46.5%	28.5%		67.6%		16.2%	O=C(CCCCCC/C=C/c1ccc2c(c1)OCO2)N1CCCCC1 [PIPERROLEIN B]	Active	Non-toxic
35.9%	29.9%	inactive	36%			CC(C)CNC(=O)/C=C/CCCC/C=C/c1ccc2c(c1)OCO2 [RETROFRACTAMIDE C]	Active	Non-toxic

Compound	inhibition [1]	inhibition [2]	Activity [3]	inhibition [4]	Activity [4]	inhibition [3]	Activity (Mus musculus)	Activity (THP-1)
CC(C)CNC(=O)/C=C/C=C/CCCCCC/C=C/c1ccc2c(c1)OCO2 [GUINEENSINE]	31.7%	14.9%	inactive	36.8%			Active	Non-toxic
